# Source: patent US20230152304A1 (SHENZHEN MINDRAY BIO-MEDICAL ELECTRONICS CO., LTD., priority 2020, published 2023)
# Residues, ends and D or L forms follow the SMILES beside them.
# Key:
# [1] = pKa of the amino group of the compound
# From the text: For the compound having a plurality of amino groups/imino groups, the pKa of amino group described herein refers to the first dissociation constant, that is, pKa of amino group or imino group which firstly dissociates hydrogen ion.
# [2] = system: aggregated platelets induced by ADP; experiment: Platelet disaggregation rate of blood samples with ADP-induced platelet aggregation (hematology analyzer, PLT_O)
# Procedure: The compounds in Table 1 above were respectively added to a diluent used for a hematology analyzer to prepare blood sample diluents. […] Each of the compounds in Table 1 (at a final concentration 0.01 mol/L) was added to the diluent separately, pH was adjusted to 14, and the osmotic pressure was adjusted to 200 mOsm/L to obtain the treatment solution.
# The venous blood of a healthy subject was collected into blood anticoagulant tubes for later use. Two aliquot blood samples (1 ml/sample) were taken. The above-mentioned diluent was added to one of the samples, the resulting solution was mixed evenly, and then the platelet count was detected in a hematology analyzer (Mindray BC-6000Plus) and recorded as: PLT_O (unaggregated). The platelet aggregation inducer ADP (at a final concentration of 0.01 mmol/L) was added to the other sample, and the resulting solution was mixed evenly. Platelets were aggregated 5 min later, at this time the above-mentioned diluent was added, and then the blood containing the aggregated platelets was detected by the hematology analyzer to obtain the platelet count, which was recorded as: PLT_O (aggregated). Another 1 ml of blood sample was taken, the platelet aggregation inducer ADP (at a final concentration of 0.01 mmol/L) was added, and the resulting solution was mixed evenly. The above-mentioned treatment solution was added 5 min later, the resulting solution was mixed evenly, and then the platelet count of the treated blood was detected by the hematology analyzer and was recorded as: PLT_O (disaggregated).
# [3] = Table 3, method of Example 1 (0.01 mol/L, pH 14, ADP 0.01 mmol/L)
# [4] = Table 4, pH 8.18, method of Example 1
# [5] = Table 4, pH 9.96, method of Example 1
# [6] = Table 5, pH 9.5, method of Example 1
# [7] = Table 2, compound 0.01 mol/L, pH 14, ADP 0.01 mmol/L
# [8] = Table 4, pH 9.14, method of Example 1
# [9] = FIG. 13, 10 mmol/L, pH 9.5, ADP 0.01 mmol/L
# [10] = Table 4, pH 5.75, method of Example 1
# [11] = Table 4, pH 10.64, method of Example 1
# [12] = Table 4, pH 10.8, method of Example 1
compound,measurement,setting,value
"1,3-diaminopropane",pKa,[1]; Table 3,10.4
same,Platelet disaggregation rate,[2]; [3],91.14%
2-aminoacetamide,pKa,[1]; Table 4,7.93
same,Platelet disaggregation rate,[2]; [4],64.57%
3-amino-1-propanol,Platelet disaggregation rate,[2]; [5],81.43%
"Nc1cc(N)cc(N)c1 [1,3,5-triaminobenzene]",pKa,"[1]; pKa, Table 3",5.5
same,Platelet disaggregation rate,[2]; [3],72.44%
"NCC(O)CN [1,3-diamino-2-propanol]",pKa,[1]; Table 3,9.68
same,Platelet disaggregation rate,[2]; [3],93.78%
"Nc1ccc(N)c(S(=O)(=O)O)c1 [2,5-diaminobenzene-sulfonic acid]",pKa,"[1]; pKa, Table 3",5.17
same,Platelet disaggregation rate,[2]; [3],62.44%
"NCC(CN)CN [2-(aminomethyl)-propane-1,3-diamine]",pKa,"[1]; pKa, Table 3",9.59
same,pKa,"[1]; pKa, Table 5",9.6
same,Platelet disaggregation rate,[2]; [3],96.43%
same,disaggregation rate,[2]; [6],97.46%
CNC(CC(N)=O)C(N)=O (stereo not drawn) [2-(methylamino) succinamide],pKa,"[1]; pKa, Table 3",7.02
same,Platelet disaggregation rate,[2]; [3],74.43%
CNCCO [2-(methylamino)ethanol],Platelet disaggregation rate,[2]; [7],82.49%%
CC(N)C(N)=O (stereo not drawn) [2-aminopropanamide],pKa,"[1]; pKa, Table 4",8.18
same,Platelet disaggregation rate,[2]; [4],62.65%
CNCc1ccc(O)cc1 [4-[(methylamino)methyl]phenol],Platelet disaggregation rate,[2]; [7],59.43%
NCCCCO [4-amino-1-butanol],pKa,"[1]; pKa, Table 4",10.3
same,Platelet disaggregation rate,[2]; [5],74.45%
NCCCC(=O)O [4-aminobutyric acid],pKa,"[1]; pKa, Table 4",10.4
Nc1ccc(O)cc1 [4-aminophenol],pKa,[1],5.5
same,Platelet disaggregation rate,[2]; [7],67.73%
same,Platelet disaggregation rate,[2]; [8],67.37%
"CCCCc1ccc(O)cc1 [4-butylphenol, reference compound]",Platelet disaggregation rate,[2]; [7],9.43%
NCc1ccc(O)cc1 [4-hydroxybenzylamine],pKa,"[1]; pKa, Table 4",9.14
same,Platelet disaggregation rate,[2]; [8],51.43%
"N.N.O=P(O)(O)O [(NH4)2HPO4, ammonium hydrogen phosphate]",disaggregation effect,[2]; [9],99.25%
"N.N.N.O=P(O)(O)O [(NH4)3PO4, ammonium phosphate]",disaggregation effect,[2]; [9],94.87%
"Br.N [NH4Br, ammonium bromide]",disaggregation effect,[2]; [9],93.48%
"N.N.O=C(O)C(=O)O [NH4C2O4, ammonium oxalate]",disaggregation effect,[2]; [9],87.67%
"N.O=P(O)(O)O [NH4H2PO4, ammonium dihydrogen phosphate]",disaggregation effect,[2]; [9],86.24%
"I.N [NH4I, ammonium iodide]",disaggregation effect,[2]; [9],92.75%
"N.O [NH4OH, ammonia water]",disaggregation effect,[2]; [9],83.05%
"N.N#CS [NH4SCN, ammonium thiocyanate]",disaggregation effect,[2]; [9],85.78%
"[Cl-].[Na+] [NaCl, reference compound]",disaggregation effect,[2]; [9],18.90%
"CC=O [acetaldehyde, reference compound]",Platelet disaggregation rate,[2]; [7],16.54%
CC(N)=O [acetamide],Platelet disaggregation rate,[2]; [7],64.57%
same,Platelet disaggregation rate,[2]; [3],44.44%
"CC(=O)O [acetate, reference compound]",Platelet disaggregation rate,[2]; [7],11.75%
"CC(=O)CC(C)=O [acetylacetone, reference compound]",Platelet disaggregation rate,[2]; [7],8.45%
NCS(=O)(=O)O [aminomethanesulfonic acid],pKa,"[1]; pKa, Table 4",5.75
same,Platelet disaggregation rate,[2]; [10],52.44%
Cl.N [ammonium chloride],disaggregation effect,[2]; [9],95.70%
same,disaggregation effect,"[2]; FIG. 14, 50 mmol/L (total for combination, equal parts), ADP 0.1 mmol/L",66.27%
same,disaggregation rate,"[2]; Table 6, 0.01 mol/L, pH 4.0",18.62%
same,disaggregation rate,"[2]; Table 6, 0.01 mol/L, pH 5.5",31.70%
same,disaggregation rate,"[2]; Table 6, 0.01 mol/L, pH 6.5",59.61%
same,disaggregation rate,"[2]; Table 6, 0.01 mol/L, pH 7.5",94.05%
same,disaggregation rate,"[2]; Table 6, 0.01 mol/L, pH 8.5",94.62%
same,disaggregation rate,"[2]; Table 6, 0.01 mol/L, pH 9.5",95.70%
same,disaggregation rate,"[2]; Table 6, 0.01 mol/L, pH 11.0",97.72%
Nc1ccccc1 [aniline],Platelet disaggregation rate,[2]; [3],56.26%
N=C(N)NCCC[C@H](N)C(=O)O [arginine],pKa,"[1]; pKa, Table 5",9
same,disaggregation rate,[2]; [6],62.64%
"O=S(=O)(O)c1ccccc1 [benzenesulfonic acid, reference compound]",Platelet disaggregation rate,[2]; [7],13.77%
N=C(N)NC(=N)N [biguanide],pKa,"[1]; pKa, Table 3",13.2
same,Platelet disaggregation rate,[2]; [3],97.54%
CCCCN [butylamine],Platelet disaggregation rate,[2]; [3],87.53%
same,Platelet disaggregation rate,[2]; [11],84.34%
"CCCC(=O)O [butyric acid, reference compound]",Platelet disaggregation rate,[2]; [7],11.45%
CC(=O)NC(C)=O [diacetamide],Platelet disaggregation rate,[2]; [7],75.43%
"CCS(=O)(=O)O [ethanesulfonic acid, reference compound]",Platelet disaggregation rate,[2]; [7],16.54%
"CCO [ethanol, reference compound]",Platelet disaggregation rate,[2]; [7],14.46%
NCCO [ethanolamine],Platelet disaggregation rate,[2]; [7],91.45%
same,Platelet disaggregation rate,[2]; [3],86.45%
same,Platelet disaggregation rate,[2]; [5],88.45%
"C=O [formaldehyde, reference compound]",Platelet disaggregation rate,[2]; [7],13.85%
N[C@@H](CCC(=O)O)C(=O)O [glutamic acid],pKa,[1],9.6
same,pKa,[1]; Table 5,9.6
same,disaggregation rate,[2]; [6],63.24%
NC(=O)CCC(N)C(=O)O (stereo not drawn) [glutamine],Platelet disaggregation rate,[2]; [4],59.25%
NCC(=O)NCC(=O)O [gly-gly] (H-Gly-Gly-OH),pKa,[1],9.6
same,disaggregation rate,[2]; [6],57.29%
NCC(=O)O [glycine],Platelet disaggregation rate,[2]; [7],65.47%
same,Platelet disaggregation rate,[2]; [3],65.47%
same,disaggregation rate,[2]; [6],70.47%
N=C(N)N [guanidine],pKa,[1],13.17
same,Platelet disaggregation rate,[2]; [7],84.35%
same,Platelet disaggregation rate,[2]; [3],84.35%
NCCCCC(N)C(=O)NC(CCCCN)C(=O)O (stereo not drawn) [lys-lys],pKa,"[1]; pKa, Table 3",11
same,Platelet disaggregation rate,[2]; [3],85.75%
NCCCCC(N)C(=O)O (stereo not drawn) [lysine],pKa,"[1]; pKa, Example 4",10.7
same,pKa,"[1]; pKa, Table 3",10.8
same,Platelet disaggregation rate,[2]; [3],70.49%
Nc1cccc(N)c1 [m-phenylenediamine],pKa,[1]; pKa,4.67
same,Platelet disaggregation rate,[2]; [3],66.83%
CCCN [n-propylamine],Platelet disaggregation rate,[2]; [11],85.53%
"Oc1ccccc1 [phenol, reference compound]",Platelet disaggregation rate,[2]; [7],8.44%
OCN(CO)C(CO)(CO)CO [reference compound],pKa,[1],6.5
same,disaggregation rate,[2]; [6],24.0%
CNCC(=O)O [sarcosine],Platelet disaggregation rate,[2]; [7],64.75%
NS(=O)(=O)O [sulfamic acid],pKa,[1],1.19
same,Platelet disaggregation rate,[2]; [10],64.54%
Nc1ccc(S(=O)(=O)O)cc1 [sulfanilic acid],pKa,"[1]; pKa, Example 4",10.1
same,pKa,"[1]; pKa, Table 3",3.32
same,Platelet disaggregation rate,[2]; [7],55.15%
same,Platelet disaggregation rate,[2]; [3],55.15%
NCCS(=O)(=O)O [taurine],pKa,"[1]; pKa, Table 4",9.12
same,Platelet disaggregation rate,[2]; [10],46.25%
CC(=O)O.NC(CO)(CO)CO [tris(hydroxymethyl)aminomethane acetate],disaggregation rate,[2]; [6],75.23%
NCCc1ccc(O)cc1 [tyramine],pKa,"[1]; pKa, Table 4",10.6
same,Platelet disaggregation rate,[2]; [8],48.44%
N=C(N)NCC(=O)O [{[amino(imino)methyl]amino}-acetic acid],pKa,"[1]; pKa, Table 4",10.8
same,Platelet disaggregation rate,[2]; [12],94.02%
aminoguanidine,pKa,[1]; Table 3,11.04
same,Platelet disaggregation rate,[2]; [3],92.35%
butanol [reference compound],Platelet disaggregation rate,[2]; [7],13.14%
ethylamine,pKa,[1]; Table 4,10.67
same,Platelet disaggregation rate,[2]; [11],83.32%
methyl guanidine,pKa,[1],13.2
same,Platelet disaggregation rate,[2]; [12],86.36%
tris(hydroxymethyl)aminomethane,pKa,[1]; Table 5,8.1
same,disaggregation rate,[2]; [6],97.32%
